Data set [1] concerns subjects with schizophrenia. The data set is described as follows: Tolerability in subjects with schizophrenia. In kind it is in vivo, human. Particulars: doses up to 25 mg QD, including 10 mg QD and 25 mg QD.
The subject of data set [2] is MPTP-lesioned monkeys. As to the kind of experiment: Cognitive testing, object retrieval task. In kind it is in vivo, squirrel monkeys (Saimiri sciureus). Particulars: for Attempts / Latency: 90 min after first L-dopa gavage, mean ± SEM, 5 monkeys. The source says:
To evaluate cognitive performance, an object retrieval task was used that measures a component of prefrontal cortex dependent cognitive control involving inhibition of an initial learned response after subsequent spatial reversals (Lyons et al. 2000, Lyons et al. 2004, Zhang et al. 2013). The apparatus used consists of a clear Plexiglas box (8×8×8 cm) with one open side, containing a small piece of marshmallow (Lyons et al. 2000, Lyons et al. 2004). The box is locked into place on a metallic platform hooked onto the front of the monkey cage. Control and MPTP-lesioned monkeys were scored for the average time and number of trials required to retrieve the marshmallow in 30 sec. The effect of ABT-126 administration was tested once weekly on Friday. […] These latter two sets of monkeys had previously been given ABT-894 and ABT-107 but using somewhat different treatment regimens. The present study was done after a 7 wk washout period, at which point LIDs were similar in all groups. ABT-126 was administered orally in a small cracker 30 min before L-dopa/carbidopa twice daily. […] It was provided in the drinking water starting at 50 μg/ml for 2 days, increased to 150 μg/ml for another two days and then maintained at 300 μg/ml. ABT-126 was tested at 0.03, 0.10, 0.30 and 1.0 mg/kg, with each dose of ABT-126 tested for 1 or 2 wk. Statistical analyses were done using GraphPad Prism. One- or two-way ANOVA was used for multiple group comparisons followed by a Newman-Keuls or Bonferroni post hoc test. Differences in rating scores between groups were analyzed using nonparametric tests (Mann-Whitney test). Data for rating scores was provided as the median (nonparametric) or mean±SEM (parametric). A value of P ≦0.05 is considered statistically significant. Values expressed are the mean±SEM of the indicated number of monkeys.

In data set [3] the test system is AD. The data set is described as follows: Phase 2a study, symptomatic treatment of AD. The class given is in vivo, human.
The test system of data set [4] is MPTP-lesioned monkeys. The data set is described as follows: L-dopa-induced dyskinesias (LIDs) ratings in MPTP-lesioned monkeys. The class given is in vivo, squirrel monkeys (Saimiri sciureus). The source says:
The objective of the current study was to test the effect of the α7 nAChR agonist ABT-126 for its ability to reduce L-dopa-induced dyskinesias (LIDs) in MPTP-lesioned monkeys. […] All monkeys were orally gavaged with L-dopa/carbidopa twice daily, which led to the development of stable abnormal involuntary movements or dyskinesias. […] These latter two sets of monkeys had previously been given ABT-894 and ABT-107 but using somewhat different treatment regimens. The present study was done after a 7 wk washout period, when LIDs were similar in all groups. ABT-126 was administered orally in a small cracker 30 min before L-dopa (10 mg/kg) and carbidopa (2.5 mg/kg). […] ABT-126 was tested at 0.03, 0.10, 0.30 and 1.0 mg/kg, with each dose of ABT-126 tested for 1 or 2 wk. […] ABT-126 at 0.10 mg/kg reduced LIDs by ˜40%, while the 0.30 and 1.0 mg/kg ABT-126 doses decreased LIDs up to 60%. We also tested the effect of ABT-126 (1.0 mg/kg) for its ability to reduce LIDs at a higher dose of L-dopa (15 mg/kg)/carbidopa (3.75 mg/kg). The higher dose of L-dopa led to greater LID scores in vehicle treated monkeys. […] The effect of ABT-126 was most pronounced during the latter weeks, possibly because of a greater decline with continued drug treatment. A washout is in progress to determine if LIDs return to vehicle-treated levels after ABT-126 discontinuation. There was no effect of the drug on parkinsonism or cognitive ability. Adult male and female squirrel monkeys (Saimiri sciureus) (n=21) weighing 0.6-1.2 kg were obtained from World Wide Primates (Miami, Fla.). The monkeys were quarantined for one month, as mandated by California state regulations. All studies were performed according to the NIH Guide for the Care and Use of Laboratory Animals, and were approved by the Institutional Animal Care and Use Committee at SRI. Animals were housed separately in a room maintained at 27±3° C., with a 12:12-h light/dark cycle. Monkey chow, fruits, and vegetables were provided over the course of the day, with water freely available. After quarantine, all monkeys were trained to perform various motor and other tasks for future assessment of parkinsonism and other behaviors (Quik et al. 2013b, Zhang et al. 2013, Quik et al. 2007, Quik et al. 2013a). They were then injected with saline (n=5) or 2.0 mg/kg 1-methyl-4-phenyl-1,2,3,6-tetrahydropyridine sc (MPTP; Sigma-Aldrich, St. Louis, Mo.) dissolved in saline (n=21), as described (Quik et al. 2013b, Zhang et al. 2013, Quik et al. 2007, Quik et al. 2013a). […] These include spatial hypokinesia (use of available cage space), body bradykinesia (slowness in body movement), manual dexterity in both left and right hands, balance (ability to hold on to the cage bars), freezing, and action tremor as described (Quik et al. 2013b, Zhang et al. 2013, Quik et al. 2007, Quik et al. 2013a). MPTP injections were repeated (1.5-1.9 mg/kg sc per time) if the monkeys were not parkinsonian and to maintain parkinsonism. Parkinsonism was rated once weekly on Monday. The monkeys were next orally gavaged with L-dopa (10 mg/kg) plus carbidopa (2.5 mg/kg), twice daily 4.5 h apart 5 d per wk, as described (Quik et al. 2013b, Zhang et al. 2013, Quik et al. 2007, Quik et al. 2013a). While treated with L-dopa, monkeys were given only fruits and vegetables in the morning to enhance L-dopa absorption. Monkey chow, as well as more fruits and vegetables, were given several hours after the second dose of L-dopa. The monkeys were taped from 8:00 to 8:30 AM, before the first dose of L-dopa to evaluate baseline movements and then from 8:30 to 12:30 PM, following the morning L-dopa dose, to evaluate dyskinesias. LIDs were rated from the video recordings for a 1 min period every 30 min. […]

In data set [5] the test system is MPTP-lesioned monkeys. As to the kind of experiment: Parkinsonian ratings in MPTP-lesioned monkeys. In kind it is in vivo, squirrel monkeys (Saimiri sciureus). Particulars: for Parkinsonian scores Before L-dopa: 45 min before L-dopa; for Parkinsonian scores Before L-dopa / Parkinsonian scores After L-dopa: mean ± SEM, 5 monkeys; for Parkinsonian scores After L-dopa: 90 min after L-dopa (10 mg/kg)/carbidopa (2.5 mg/kg). The text has this:
After quarantine, all monkeys were trained to perform various motor and other tasks for future assessment of parkinsonism and other behaviors (Quik et al. 2013b, Zhang et al. 2013, Quik et al. 2007, Quik et al. 2013a). […] Sigma-Aldrich, St. Louis, Mo.) dissolved in saline (n=21), as described (Quik et al. 2013b, Zhang et al. 2013, Quik et al. 2007, Quik et al. 2013a). […] These include spatial hypokinesia (use of available cage space), body bradykinesia (slowness in body movement), manual dexterity in both left and right hands, balance (ability to hold on to the cage bars), freezing, and action tremor as described (Quik et al. 2013b, Zhang et al. 2013, Quik et al. 2007, Quik et al. 2013a). MPTP injections were repeated (1.5-1.9 mg/kg sc per time) if the monkeys were not parkinsonian and to maintain parkinsonism. Parkinsonism was rated once weekly on Monday. […] These latter two sets of monkeys had previously been given ABT-894 and ABT-107 but using somewhat different treatment regimens. The present study was done after a 7 wk washout period, at which point LIDs were similar in all groups. […] It was provided in the drinking water starting at 50 μg/ml for 2 days, increased to 150 μg/ml for another two days and then maintained at 300 μg/ml. ABT-126 was tested at 0.03, 0.10, 0.30 and 1.0 mg/kg, with each dose of ABT-126 tested for 1 or 2 wk. Statistical analyses were done using GraphPad Prism. One- or two-way ANOVA was used for multiple group comparisons followed by a Newman-Keuls or Bonferroni post hoc test. Differences in rating scores between groups were analyzed using nonparametric tests (Mann-Whitney test). Data for rating scores was provided as the median (nonparametric) or mean±SEM (parametric). A value of P ≦0.05 is considered statistically significant. Values expressed are the mean±SEM of the indicated number of monkeys.

Where [6] appears, read: 0.3 mg/kg ABT-126 orally, set 1.
[7] abbreviates: 0.3 mg/kg ABT-126 orally, set 2.
[8] abbreviates: ABT-126 orally, MPTP-lesioned L-dopa-treated monkeys.
The mark [9] stands for this setting: ABT-126 1.0 mg/kg orally, higher L-dopa (15 mg/kg)/carbidopa (3.75 mg/kg), wk 6.
The mark [10] stands for this setting: 0.03 mg/kg ABT-126 orally, set 1.
[11] abbreviates: 0.03 mg/kg ABT-126 orally, set 2.
Where [12] appears, read: 300 μg/ml nicotine in the drinking water.

2 compounds from patent US20150313891A1, “NEURONAL NICOTINIC AGONISTS AND METHODS OF USE” (AbbVie Inc., priority 2014, published 2015) can be followed below.

Consider `c1ccc(-c2nnc(O[C@@H]3C4CC5C[C@H]3C[N@](C5)C4)s2)cc1` [ABT-126, (4s)-4-(5-phenyl-1,3,4-thiadiazol-2-yloxy)-1-azatricyclo[3.3.1.1^3,7]decane], for which the tolerability entry in data set [1] is on record as “well tolerated”. Besides, in data set [2] (setting [6]), the Attempts is reported as 22.8 ± 3.2 and the “Latency” value stood at 21.2 ± 2.8 s. For the same compound, in data set [2] (setting [7]), the Attempts was determined as 18.0 ± 2.5 and the “Latency” value is given as 18.3 ± 3.3 s. Also, the “effect on cognitive ability” value in data set [2] (setting [8]) is reported as “no effect”. Further, the “efficacy in the symptomatic treatment of AD” value in data set [3] was “signal for efficacy”. For the same compound, in data set [4] (ABT-126 0.03 mg/kg orally 30 min before L-dopa (10 mg/kg)/carbidopa (2.5 mg/kg)), the “effect on LIDs” value is reported as “no significant effect”. In addition, the “reduction of LIDs” value in data set [4] (ABT-126 0.10 mg/kg orally 30 min before L-dopa (10 mg/kg)/carbidopa (2.5 mg/kg)) is given as roughly 40%. Moreover, in data set [4] (ABT-126 0.3 mg/kg), the “hourly time course of LIDs, FIG. 2” value was “maximal decline”. For the same compound, in data set [4] (ABT-126 0.30 mg/kg orally 30 min before L-dopa (10 mg/kg)/carbidopa (2.5 mg/kg)), the “decrease of LIDs” value is “up to 60%”. For the same compound, the “decrease of LIDs” value in data set [4] (ABT-126 1.0 mg/kg orally 30 min before L-dopa (10 mg/kg)/carbidopa (2.5 mg/kg)) is “up to 60%”. For the same compound, in data set [4] (setting [9]), the “reduction of LIDs after the afternoon dose of L-dopa” value stood at 60% and the “reduction of LIDs after the morning dose of L-dopa” value is listed as 70%. Besides, the “decrease of LIDs, total dyskinesia scores (% vehicle), FIG. 1” value in data set [4] (increasing doses of ABT-126 (0.03 to 1.0 mg/kg), each for a wk, L-dopa 10 mg/kg plus carbidopa 2.5 mg/kg) was no more than 70%. In data set [5] (setting [10]), the “Parkinsonian scores Before L-dopa” value worked out at 4.2 ± 0.4 and the “Parkinsonian scores After L-dopa” value was 2.6 ± 0.4. In addition, in data set [5] (setting [11]), the “Parkinsonian scores Before L-dopa” value was 3.4 ± 0.7 and the “Parkinsonian scores After L-dopa” value was found to be 2.2 ± 0.2. The effect on parkinsonism entry in data set [5] (setting [8]) was “no effect”.

For `CN1CCCC1c1cccnc1` (stereo not drawn) [Nicotine, nicotine, reference compound], in data set [2] (setting [12]), the Attempts is recorded as 23.8 ± 2.8 and the “Latency” value was determined as 19.2 ± 2.2 s. For the same compound, in data set [5] (setting [12]), the “Parkinsonian scores Before L-dopa” value was found to be 3.6 ± 0.4 and the “Parkinsonian scores After L-dopa” value was determined as 2.4 ± 0.4.
